Results: publication PMC7464159, “Triple Negative Breast Cancer and Breast Epithelial Cells Differentially Reprogram Glucose and Lipid Metabolism upon Treatment with Triterpenic Acids” (Biomolecules, 2020)

Columns and labels:
MCF-10A cells = test: 1H NMR analysis of culture medium supernatants (exometabolome); assay type: cell-based, human
Procedure: (§1) MDA-MB-231 and MCF-10A cells were seeded in 10-cm-diameter Petri dishes at a density of 6 × 10^5 cells/mL (10 mL per dish) and cultured for 24 h at 37 °C. Cells were then incubated for 48 h with BA (5 and 15 µM) or UA (10 and 20 µM). Vehicle solvent control cells received DMSO (0.10% v/v). Samples were collected immediately after 48 h incubation or, to assess cellular recovery, medium was replaced with fresh growth medium (without TAs), and cells were incubated for additional 24 h before collection (48 + 24 h samples). Four independent assays were performed.
(§2) After incubation, culture medium was collected and centrifuged (1000× g, 5 min) and the supernatant stored at −80 °C until analysis. Culture medium without cells was placed under the same conditions and collected. Cell extraction was performed as described by Carrola et al.. Briefly, cells were washed four times with PBS and extracted with a mixture of methanol:chloroform:water (1:1:0.7). The resulting polar and organic phases were collected and then dried under vacuum or under a stream of nitrogen gas, respectively. All samples were stored at −80 °C and, at the time of analysis, dried polar extracts were reconstituted in 600 µL of deuterated phosphate buffer (100 mM, pH 7.4) containing 0.1 mM TSP-d4, while organic extracts were reconstituted in deuterated chloroform containing 0.03% TMS. Regarding medium samples, 540 μL were mixed with 60 μL of D2O containing 0.25% TSP-d4. Prior to analysis, 550 μL of each sample were transferred to 5 mm NMR tubes.
(§3) ^1H NMR spectra of all samples were acquired on a Bruker Avance III HD 500 NMR spectrometer (University of Aveiro, Portuguese NMR Network) operating at 500.13 MHz for ^1H observation equipped with a 5 mm TXI probe. Standard 1D spectra (Bruker pulse programs ‘noesypr1d’, with water suppression, for medium samples and aqueous extracts, and ‘zg’ for organic extracts) were recorded with a 7002.8 Hz spectral width, 32 k data points, a 2 s relaxation delay and 512 scans. Spectral processing comprised exponential multiplication with 0.3 Hz line broadening, zero filling to 64 k data points, manual phasing, baseline correction, and chemical shift calibration to the TSP or TMS signal at 0 ppm. 2D ^1H-^1H total correlation (TOCSY) spectra, ^1H-^13C heteronuclear single quantum correlation (HSQC) spectra and J-resolved spectra were also registered for selected samples to assist spectral assignment. Metabolites were identified with the support of 2D spectra and the spectral reference databases BBIOREFCODE-2-0-0 (Bruker Biospin, Rheinstetten, Germany) and HMDB [28]. Selected signals were then integrated using the AmixViewer software […] (version 3.9.14, Bruker BioSpin, Rheinstetten, Germany) and normalized by the total spectral area. The magnitude of each metabolite change was assessed through the percentage of variation (and its respective error) in exposed samples relatively to controls, and through the effect size (ES) adjusted for small sample numbers (and respective standard error). Metabolite variations with absolute ES greater than 0.8 were expressed in a heatmap, colored as a function of the percentage of variation, employing the R statistical software.

MDA-MB-231 cells [1] = test: as above; assay type: cell-based, human
Procedure: as §1, §2, §3

MDA-MB-231 cells [2] = test system: MDA-MB-231 cells; parameters: method as in PMID 28213701; conditions: MDA-MB-231, 24 h incubation; read-out: IC50 reported in the literature; cited from earlier work

Row | SMILES | consumption of glucose and pyruvate (MCF-10A cells; 48 h) | excretion of lactate (MCF-10A cells; 48 h) | consumption of glucose, pyruvate and acetate (MCF-10A cells; BA, 48 + 24 h) | formate excretion (MCF-10A cells; BA, 48 + 24 h) | consumption of several amino acids (BCAA, glutamine, phenylalanine, tyrosine) (MCF-10A cells; BA, 48 h) | excretion of alanine and fumarate (MCF-10A cells; BA, 48 h) | consumption of leucine (MDA-MB-231 cells [1]; BA 5µM, 48h) | glucose consumption (MDA-MB-231 cells [1]; BA 15µM, 48h) | lactate excretion (MDA-MB-231 cells [1]; BA 15 µM, 48 h (already noticed at 5 µM)) | consumption of leucine and pyruvate (MDA-MB-231 cells [1]; BA, 48 + 24 h) | excretion of 2-oxoisovalerate, citrate and alanine (MDA-MB-231 cells [1]; BA, 48 + 24 h) | glucose consumption and lactate excretion vs untreated controls (MDA-MB-231 cells [1]; BA, 48 + 24 h) | IC50 (MDA-MB-231 cells [2]) | consumption of several amino acids (MCF-10A cells; UA, 48 h) | consumption of glucose, leucine and choline (MDA-MB-231 cells [1]; UA, 48 + 24 h) | excretion of lactate, 2-oxoisovalerate, citrate, alanine and glutamate (MDA-MB-231 cells [1]; UA, 48 + 24 h) | changes in the exometabolome (MDA-MB-231 cells [1]; UA, 48 h)
1 | C=C(C)[C@@H]1CC[C@]2(C(=O)O)CC[C@]3(C)[C@H](CC[C@@H]4[C@@]5(C)CC[C@H](O)C(C)(C)[C@@H]5CC[C@]43C)[C@@H]12 [BA, betulinic acid] | consumed more | excreting more | decreased | increased | significantly reduced | decreased excretion | decreased significantly | significant increases | significant increases | consumed less | excreted less | no longer differences | 30.6 µM |  |  |  | 
2 | C[C@H]1[C@H](C)CC[C@]2(C(=O)O)CC[C@]3(C)C(=CC[C@@H]4[C@@]5(C)CC[C@H](O)C(C)(C)[C@@H]5CC[C@]43C)[C@H]12 [UA, ursolic acid] | increasing the consumption | increasing |  |  |  |  |  |  |  |  |  |  | 22.9 µM | decreased | decreased consumption | decreased excretion | no significant changes
